As usually defined, the inhibition is the share of the control response that was lost under treatment. A low value points to a response near the control.

“Also recorded” adds a separate entry of the source.

Assay [1] relates to HL-60 cells. Description: Plate 1b: mitochondrial membrane potential (MMP) measured with JC-9 by flow cytometry. The assay is classed as cell-based, human. As for the experimental part: Cells were deposited into 384 well plates (1×10^6 cells in 40 μl tissue culture media), and serial dilutions of test compounds (or vehicle in the case of controls) were deposited in individual wells using standard robotic techniques. Compound deposition and dilution was performed by BIOMEK FX (5 or 10-step dilutions from 100 to 0.005 μM). Dilutions were prepared from stock solutions of compounds dissolved initially in 100% DMSO. Final volume deposited into each well is 2 μl of each compound dilution (compounds are in a final concentration of 1% DMSO). After incubation in a tissue culture incubator (5% CO2 at 37° C.) for varying periods of time (typically 4 hours), plates were centrifuged at room temperature, followed by removal of 20 μl supernatant fluid. After vibration of the plate to re-suspend cells, a dye mix (Plate 1a Monobromobimane, CALCEIN AM, MITOSOX™ and SYTOSOX™ RED; plate 1b VYBRANVIOLET™ Live Cell Cycle dye, JC-9, and SYTOSOX™ RED) was added in a total volume of 20 μl, followed by an additional mixing step. Plates were returned to the tissue culture incubator (5% CO2 at 37° C.) for an additional 15 min (plate 1a) or 30 min (plate 1b), followed by immediate analysis using the […]-CYAN™.
Measurements identical to those described in Example 2 above were made using a second combination of dyes: • (1) VYBRANVIOLET™ to measure cell cycle in live cells; • (2) JC-9 to measure mitochondrial membrane potential (MMP); and • (3) SYTOXRED™ (as described herein above).
The measurement of mitochondrial membrane potential (MMP) with JC-9 was performed with two independent fluorescence channels (green and red fluorescence signals), as changes in MMP cause aggregation of the dye, with different fluorescence emission by the aggregated versus non-aggregated dye molecules. […] At higher valinomycin concentrations, red fluorescence […]. A unique aspect of this assay is that it correlates changes in MMP (JC-9) and cell death (SYTOXRED™) with the phases of the cell cycle (G1, S, and G2M).
An identical study to the one described before was conducted with exposing HL60 cells exposed to 1.23 μM idarubicin, an analog of daunorubicin which inserts into DNA and prevents it from unwinding during DNA replication and arrests cell division.
On the technique in general: Flow cytometry measures light scatter and fluorescence of single cells or particles in a stream.

The subject of assay [2] is phosphorylation of the downstream STAT5 target in K562 cells. The assay is described as follows: Phosphorylation of STAT5 in K562 cells by flow cytometry. The assay is classed as cell-based. To be noted: Homo sapiens, 0.5 h, 30 min. As for the experimental part:
Cells were deposited onto dilutions of test compounds deposited into individual wells of […], as indicated above. Following incubation in a tissue culture incubator (5% CO2 at 37° C.) for 30 minutes to 12 hr, the cells were pelleted by centrifugation, the supernatant was removed, the cells were re-suspended by vibration in the remaining supernatant fluid, and 50 μl of fixative (1.2% formaldehyde in PBS) was added. Following 15 min incubation (at 37° C.), cells were pelleted by centrifugation, supernatant removed, and the cells were suspended by vibrating the plate.
Cell were permeabilized by adding 150 μl cold absolute methanol, followed by incubation at 4° C. for 15 minutes. Permeabilized cells were centrifuged, supernatant removed, and cells were washed three times with cold (4° C.) PBS containing 4% FBS. Following the final wash, cells were centrifuged, the supernatant was removed, and cells were re-suspended in an antibody cocktail (total volume 20 μl) appropriate for that experiment.

The test system of assay [3] is HL-60 cells. Description: Cell physiology assay plate 1a: flow cytometry with MBBR, CALCEIN AM, MITOSOX RED and SYTOXRED
Type of assay: cell-based, human. The protocol:
Cells were deposited into 384 well plates (1×10^6 cells in 40 μl tissue culture media), and serial dilutions of test compounds (or vehicle in the case of controls) were deposited in individual wells using standard robotic techniques. Compound deposition and dilution was performed by BIOMEK FX (5 or 10-step dilutions from 100 to 0.005 μM). Dilutions were prepared from stock solutions of compounds dissolved initially in 100% DMSO. Final volume deposited into each well is 2 μl of each compound dilution (compounds are in a final concentration of 1% DMSO). After incubation in a tissue culture incubator (5% CO2 at 37° C.) for varying periods of time (typically 4 hours), plates were centrifuged at room temperature, followed by removal of 20 μl supernatant fluid. After vibration of the plate to re-suspend cells, a dye mix (Plate 1a Monobromobimane, CALCEIN AM, MITOSOX™ and SYTOSOX™ RED; plate 1b VYBRANVIOLET™ Live Cell Cycle dye, JC-9, and SYTOSOX™ RED) was added in a total volume of 20 μl, followed by an additional mixing step.
Each well of the 384-well plate was sampled with a 6 second sip time, plus 1 second delay between wells, resulting in a total read time for each plate of approximately 45 minutes. Data was acquired using a CYAN™ flow cytometer, with the […]™ software used to compile files for each well on an individual plate using an FCS format. Data for each plate was subsequently analyzed for several quality assurance parameters (total number of events per well, numbers of events associated with morphologically normal events, number of dead cells), as described below.
Flow cytometric analyses of intrinsic cell properties (forward light scatter and light scattered orthogonal to the laser beam) and fluorescence signals derived from the dyes listed in Table 1 was carried out for plates 1a and 1b.
Chem. Soc. […] Technol. […] MITOSOX™ RED is a compound that can diffuse into viable cells and reacts with superoxide anion species, particularly products of mitochondrial respiration; conditions such as cell stress can cause mitochondria to respond (sometimes rapidly) by increasing respiration and/or release superoxide anions; and • (3) SYTOXRED™ to measure cell viability (loss of nuclear membrane integrity). SYTOXRED™ is a high-affinity DNA stain that can only pass through the cytoplasmic and nuclear membranes of cells which have lost the integrity of both membranes; thus, brightly fluorescent cells are dead.

The test system of assay [4] is human peripheral blood monocytes. Description: Kinetics of signal transduction responses to LPS in whole blood monocytes by flow cytometry. Type of assay: cell-based. To be noted: LPS alone. From the text:
Herein, specific dyes that monitor cell membrane permeability (marker for cell death), nuclear membrane permeability (marker for cell death), signal transduction pathways implicated in DNA damage (phospho-Histone H2A, phospho-ATM/ATR, phospho-p53), signal transduction pathways implicated in inflammation (e.g., NF-kB), signal transduction via the MAP kinase pathways (ERK, SAP/JNK, p38), signal transduction via the PI3 Kinase pathway (Akt, GSK3B, RS6K, S6), early apoptotic pathways (e.g., annexin V), mid apoptotic pathways (e.g., cleaved caspase), late apoptotic pathways (e.g., PARP/DNA fragmentation), etc. may be employed.

Where [5] appears, read: 33 μM, cells with normal morphology.
Where [6] appears, read: 33 μM, population with altered morphology.

`CC(=O)[C@]1(O)Cc2c(O)c3c(c(O)c2[C@@H](O[C@H]2C[C@H](N)[C@H](O)[C@H](C)O2)C1)C(=O)c1ccccc1C3=O` [idarubicin]: the “JC-9 red fluorescence versus untreated control cells” value with HL-60 cells [1] (1.23 μM) is reported as “significantly higher”. Besides, the JC-9 green fluorescence result with HL-60 cells [1] (FIG. 6B) was “does not increase”.

For the compound `Cc1ccc(NC(=O)c2ccc(CN3CCN(C)CC3)cc2)cc1Nc1nccc(-c2cccnc2)n1` [GLEEVEC, imatinib], the inhibition at 2 µM in assay [2] is over 95%.

Take `CC(C)[C@@H]1NC(=O)[C@H](C)OC(=O)[C@@H](C(C)C)NC(=O)[C@@H](C(C)C)OC(=O)[C@H](C(C)C)NC(=O)[C@H](C)OC(=O)[C@@H](C(C)C)NC(=O)[C@@H](C(C)C)OC(=O)[C@H](C(C)C)NC(=O)[C@H](C)OC(=O)[C@@H](C(C)C)NC(=O)[C@@H](C(C)C)OC1=O` [valinomycin]: in the assay with HL-60 cells [1] (FIG. 6A legend), the “concentration at peak of JC-9 red and green fluorescence” value is about 0.045 µM. Besides, in the assay on HL-60 cells [1] (FIG. 6A, Example 4A), the “concentration at peak JC-9 green fluorescence” value is about 0.05 µM. Also, the “JC-9 red and green fluorescence” value in the assay on HL-60 cells [1] (with increasing concentration, FIG. 6A) is listed as “initially increase; also recorded: significantly higher”.

For the compound `N#CC(C#N)=NNc1ccc(OC(F)(F)F)cc1` [FCCP, carbonyl cyanide-4-(trifluoromethoxy)phenylhydrazone], in the assay on HL-60 cells [3] (setting [5]), the “CALCEIN AM” value was “normal”; the GSH entry is “normal”; the ROS entry is reported as “increased ROS”; the “nuclear and cytoplasmic membranes (SYTOX Red uptake)” value was “intact nuclear and cytoplasmic membranes”. In the assay with HL-60 cells [3] (setting [6]), the CALCEIN result is recorded as “increased CALCEIN”, the GSH result is reported as “reduced GSH”, the ROS result was “increased ROS” and the SYTOXRED entry is on record as “higher SYTOXRED™”.

With `CO/C(=C/C(N)=O)[C@H](C)[C@H](/C=C/c1csc(-c2csc([C@@H](C)/C=C/C=C/C(C)C)n2)n1)OC` [myxothiazol], in the assay on HL-60 cells [3] (100 μM), the “CALCEIN AM” value was “decrease”; the “GSH (MBBR)” value is recorded as “decrease”; the “ROS (MITOSOX RED)” value is “increase”; the “SYTOXRED (cytoplasmic and nuclear membrane permeability, viability)” value is given as “increase”. The “cell morphology (light scatter)” value with HL-60 cells [3] (100 μM) is “significant change in cell morphology”. In addition, the “SYTOXRED (cytoplasmic and nuclear membrane permeability, viability)” value in the assay on HL-60 cells [3] (100 μM, listed as myxothiozol) is “perturbs cytoplasmic and nuclear membrane permeability (viability)”.

In the case of lipopolysaccharide [LPS], in assay [4], the “ERK, Akt and S6 (phosphorylation)” value is on record as “activated; also recorded: activates (phosphorylates)”; the “Iκ kinase (proteasomal degradation of IκBα)” value is “activates”.

Take `CNCCC(Oc1ccc(C(F)(F)F)cc1)c1ccccc1` (centres unmarked) [fluoxetine]: in the assay with HL-60 cells [3] (100 μM), the “CALCEIN AM” value is recorded as “reduced CALCEIN AM”, the “GSH (MBBR)” value is given as “reduced GSH”, the “ROS (MITOSOX RED)” value is reported as “increased ROS” and the “cell death in relation to cell cycle (SYTOXRED histogram)” value was “cells are dying throughout the cell cycle”.
